Measured values from paper PMC6271143, “Novel Triphenylantimony(V) and Triphenylbismuth(V) Complexes with Benzoic Acid Derivatives: Structural Characterization, in Vitro Antileishmanial and Antibacterial Activities and Cytotoxicity against Macrophages” (Molecules, 2014).
Values after ≈ are worked out from the molar mass of the structure shown. Read-outs that look alike come from different tables or passages of the source.

How the values were obtained:
[1] = tested on: mouse peritoneal macrophages; assay: Cytotoxicity (MTT assay) against mouse peritoneal macrophages; type: cell-based, mouse (Balb/c); settings: 24 h, murine peritoneal macrophages, read-out: CC50: concentration that is cytotoxic against 50% of macrophages
Procedure: (§1) The in vitro cytotoxicity of the complexes, along their metal salts and ligands, was evaluated by means of the MTT assays towards mouse peritoneal macrophages. The results of in vitro cytotoxic activity are expressed as CC50, which is the concentration of compound that inhibits the viability of macrophages by 50% as compared to untreated macrophages control.
(§2) The concentration of studied compounds that is cytotoxic to 50% of the macrophages (CC50) was determined by the 3-(4,5-dimethylthiazol-2-yl)-2,5 diphenyltetrazolium bromide (MTT) method according to Mosmann. Briefly, peritoneal macrophages were obtained from Balb/c mice after intraperitoneal injection of 2 mL of 3% sodium thioglycolate medium. Mice were euthanized after 72 h, just before removal of peritoneal macrophages by washing with cold RPMI 1640 medium. The procedure was approved by the Internal Ethics Committee in Animal Experimentation (CEUA) of the Federal University of Uberlândia (Protocol 069/2013). After washing, the cell suspension (4.0 × 10^6/mL) was seeded (0.1 mL) in 96-well flat bottom plates. Macrophages were allowed to adhere for 2 h and non-adherent cells were removed by washing with RPMI. Then, the compounds were added to the wells at different concentrations and the cells were further cultured in RPMI-1640 supplemented with 10% FBS for 24 h at 37 °C in a humidified 5% CO2 atmosphere. Thereafter, the medium was replaced with fresh RPMI containing 0.5 mg/mL of MTT and the plates were incubated for additional 4 h. Supernatants were aspirated and the formazan crystals formed were dissolved in 100 μL of DMSO. After 15 min of incubation at room temperature, absorbance of solubilized MTT formazan product was spectrophotometrically measured at 570 nm.
(§3) The IC50 and CC50 values were calculated by nonlinear regression using the software GraphPad Prism 5.0. The acceptable level of significance was 95% (p < 0.05).

[2] = tested on: Staphyloccocus aureus (ATCC 6538); assay: Minimum inhibitory concentration, broth dilution (NCCLS M7-A6), S. aureus; type: cell-based, Staphylococcus aureus; settings: for MIC: ATCC 6538, 100% inhibition of growth, visual, 24 h at 37 °C; for d SI (selective index): ratio between MIC in murine macrophages and MIC in Staphylococcus aereus: as printed in footnote d
Procedure: (§4) Antimicrobial activity tests were performed in a quantitative way by determining the minimum inhibitory concentration (MIC) by the standard method for in vitro anti-bacterial susceptibility testing proposed by the National Committee for Clinical Laboratory Standards [NCCLS M7-A6] [56]. Sthaphyloccocus aureus [ATCC6538] and Pseudomonas aeruginosa [ATCC27853] stored in Müller–Hilton broth were sub-cultured for testing in the same medium and incubated for 24 h, respectively, at 37 °C. The bacterial cells of the two strains were suspended in Müller-Hilton broth to produce inocula of 10^8 CFU mL^–1, determined by a spectrophotometric method. Serial dilutions of the compounds, previously dissolved in DMSO, were prepared in 10 test tubes with Müller–Hilton broth to final concentrations from 100 μg mL^–1 to 0.20 μg mL^–1 for P. aeruginosa and S. aureus. An old inoculum of each strain was added to the tubes to obtain final concentrations of 10^5 CFU. […] Tests using tetracycline as positive control and DMSO as negative control were carried out in parallel. All tests were performed in triplicate with full agreement between the results.

[3] = tested on: L. infantum promastigotes; assay: Antileishmanial activity assay (growth inhibition, absorbance at 600 nm) against L. infantum promastigotes; type: cell-based, Leishmania infantum (strain MCAN/BR/2002/BH400); settings: for IC50: promastigotes, IC50/72 h (source says 48 h), non-linear regression, read-out: IC50 (μM) ± SEM, L. infantum strain
Procedure: (§5) The four complexes, their metal salts and their respective free ligands were primarily tested for their activity to investigate whether they inhibit the growth of L. amazonensis and L. infantum promastigotes. The growth rate of the promastigotes incubated for […] in the presence of test compounds was compared to those of nontreated negative control and to those treated with the standard antileishmanial antimony(III) drug tartar emetic.
(§6) Leishmania amazonensis (strain MHOM/BR/1989/BA199) and Leishmania infantum (strain MCAN/BR/2002/BH400) promastigotes were maintained in minimum essential culture medium (α-MEM) (Gibco, Invitrogen, Grand Island, NY, USA) supplemented with 10% (v/v) heat inactivated fetal calf serum (Cultilab, Campinas, SP, Brazil), […] kanamycin, […] ampicillin, 2 mM L-glutamine, […] hemin, 5 mM biopterin, (Sigma-Aldrich), pH 7.0 and incubated at 25 °C [52].
(§7) Complexes 1-4 were evaluated in vitro for their activity against two wild type Leishmania parasites. Log-phase L. amazonensis and L. infantum promastigotes (1 × 10^6 parasites/mL) were seeded in 24-wells cell culture plates with 1.5 mL of α-MEM, incubated under shaking at 25 °C during 72 h in the presence of several concentrations of complex 1–4, free ligands HL1-2, and metal precursors M1-2. Non-treated parasites in the presence of DMSO solution and absence of any test compound were established for growth comparison. Stock solutions of the ligands, 2-acetylsalicylic acid and 3-acetoxybenzoic acid, their metal complexes 1–4, and metal salts, Ph3SbCl2 and Ph3BiCO3 were dissolved in DMSO and diluted in α-MEM cell culture medium to obtain the range of tested concentrations. […] For drug susceptibility assay, Leishmania growth curves were constructed by measuring absorbance at 600 nm. The antileishmanial activity is expressed as IC50/72 h, which is the concentration that reduces cell growth by 50% compared to untreated control (relative growth). All experiments were done at least three times as independent experiments performed in triplicate.
as §3

[4] = tested on: Pseudomonas aeruginosa (ATCC 27853); assay: Minimum inhibitory concentration, broth dilution (NCCLS M7-A6), P. aeruginosa; type: cell-based; settings: visual, 24 h at 37 °C
Procedure: as §4

[5] = tested on: L. amazonensis promastigotes; assay: Antileishmanial activity assay (growth inhibition, absorbance at 600 nm) against L. amazonensis promastigotes; type: cell-based, Leishmania amazonensis (strain MHOM/BR/1989/BA199); settings: for IC50: promastigotes, IC50/72 h (source says 48 h), non-linear regression, read-out: IC50 (μM) ± SEM, L. amazonensis strain
Procedure: as §5, §6, §7, §3

[6] = Cytotoxicity (MTT assay) against mouse peritoneal macrophages; type: cell-based, mouse (Balb/c); settings: Balb/c, mouse, mouse peritoneal macrophages, murine peritoneal macrophages, read-out: CC50: concentration that is cytotoxic against 50% of macrophages
Procedure: as §1, §2, §3

[7] = Antileishmanial activity assay (growth inhibition, absorbance at 600 nm) against L. infantum promastigotes; type: cell-based, Leishmania infantum (strain MCAN/BR/2002/BH400); settings: Balb/c, mouse (macrophages); Leishmania infantum (promastigotes), pH 7; CC50 macrophages / IC50 L. infantum; read-out: a SI (selective index): ratio between CC50 in murine macrophages and IC50 in L. infantum
Procedure: as §5, §6, §7, §3

[8] = tested on: Pseudomonas aeruginosa (ATCC 27853); assay: Minimum inhibitory concentration, broth dilution (NCCLS M7-A6), P. aeruginosa; type: cell-based; settings: as printed in footnote c
[9] = Antileishmanial activity assay (growth inhibition, absorbance at 600 nm) against L. amazonensis promastigotes; type: cell-based, Leishmania amazonensis (strain MHOM/BR/1989/BA199); settings: Balb/c, mouse (macrophages); Leishmania amazonensis (promastigotes), pH 7; CC50 macrophages / IC50 L. amazonensis; read-out: b SI (selective index): ratio between CC50 in murine macrophages and IC50 in L. amazonensis (WT)
Procedure: as §5, §6, §7, §3

[10] = tested on: L. infantum promastigotes; assay: Antileishmanial activity assay (growth inhibition, absorbance at 600 nm) against L. infantum promastigotes; type: cell-based, Leishmania infantum (strain MCAN/BR/2002/BH400); settings: Leishmania infantum, IC50/72 h (source says 48 h), non-linear regression, read-out: IC50 (μM) ± SEM, L. infantum strain
[11] = tested on: L. amazonensis promastigotes; parameters: method as in PMID 23099618; settings: read-out: IC50 (μM) ± SEM, L. amazonensis strain; cited from earlier work
[12] = tested on: Pseudomonas aeruginosa (ATCC 27853); parameters: method as in doi:10.1016/j.molstruc.2010.11.048; settings: cited from earlier work
Leishmania promastigotes = tested on: Leishmania promastigotes; parameters: method as in PMID 19633606; settings: cited from earlier work
[13] = Staphylococcus aureus, ATCC6538
[14] = Pseudomonas aeruginosa, ATCC27853, 100% inhibition of growth

Compound | CC50 [1] [µM] | MIC [2] [µM] | a SI (selective index): ratio between CC50 in murine macrophages and IC50 in L. infantum [3] | IC50 [3] [µM] | MIC ([4]; 100% inhibition of growth) [µM] | b SI (selective index): ratio between CC50 in murine macrophages and IC50 in L. amazonensis (WT) [5] | IC50 [5] [µM] | other results
CC(=O)Oc1ccccc1C(=O)[O][Sb]([O]C(=O)c1ccccc1OC(C)=O)([c]1ccccc1)([c]1ccccc1)[c]1ccccc1 [Complex 1, Bis-(acetylsalicylato)triphenylantimony(V)] | 60.5 ± 3.4 | 140.6 | 4.51 | 13.3 ± 0.74 | 140.6 | 2.0 | 30.7 ± 3.43 | –
CC(=O)Oc1ccccc1C(=O)[O][Bi]([O]C(=O)c1ccccc1OC(C)=O)([c]1ccccc1)([c]1ccccc1)[c]1ccccc1 [Complex 3, Bis-(acetylsalicylato)triphenylbismuth(V)] | 6.4 ± 0.5 | 4.1 | 0.74 | 8.6 ± 1.36 | 8.2 | 0.75 | 8.5 ± 0.56 | –
CC(=O)Oc1cccc(C(=O)[O][Bi]([O]C(=O)c2cccc(OC(C)=O)c2)([c]2ccccc2)([c]2ccccc2)[c]2ccccc2)c1 [Complex 4, Bis-(3-acetoxybenzoato)triphenylbismuth(V)] | 2 ± 0.1 | 4.1 | <1 | 4 ± 0.39 | 16.5 | <1 | 2.9 ± 0.17 | –
[Cl][Sb]([Cl])([c]1ccccc1)([c]1ccccc1)[c]1ccccc1 [Complex M1, triphenylantimony(V) dichloride] | 22.7 ± 0.93 | 235.8 | 1.7 | 13.2 ± 2.03 | 235.8 | 2.4 | 9.3 ± 0.26 | –
O=C([O-])[O-].c1cc[c]([Bi+2]([c]2ccccc2)[c]2ccccc2)cc1 [Complex M2, triphenylbismuth carbonate] | 12.1 ± 0.45 | 24.5 | 10.6 | 1.1 ± 0.37 | 48.9 | 4.6 | 2.7 ± 0.34 | –
CC(=O)Oc1ccccc1C(=O)O [HL1, acetylsalicylic acid] | – | – | – | – | – | – | – | CC50 at 24 h [6]: 0.5801 ± 0.00107 mM; MIC [2, 13]: > 555 µM; d SI (selective index): ratio between MIC in murine macrophages and MIC in Staphylococcus aereus [2]: <1; selectivity ratio at 72 h [7]: < 1; MIC [4, 14]: > 555 µM; c SI (selective index): ratio between CC50 in murine macrophages and MIC in Pseudomonas aureginosa [8]: <1; selectivity ratio at 72 h [9]: < 1; IC50 [10]: 8990 µM
CC(=O)Oc1cccc(C(=O)O)c1 [HL2, 3-acetoxybenzoic acid] | – | – | – | – | – | – | – | CC50 at 24 h [6]: 2.768 ± 0.009 mM; MIC [2, 13]: > 555 µM; d SI (selective index): ratio between MIC in murine macrophages and MIC in Staphylococcus aereus [2]: <1; selectivity ratio at 72 h [7]: < 1; MIC [4, 14]: > 555 µM; c SI (selective index): ratio between CC50 in murine macrophages and MIC in Pseudomonas aureginosa [8]: <1; selectivity ratio at 72 h [9]: < 1
O=C([O-])[C@H]([O-])[C@@H]([O-])C(=O)[O-].O=C([O-])[C@H]([O-])[C@@H]([O-])C(=O)[O-].[K+].[K+].[Sb+3].[Sb+3] [TA, potassium antimony tartrate] | – | – | – | 100 ± 3 | – | – | – | IC50 [11]: 83 ± 1 µM
CN(C)[C@@H]1C(O)=C(C(N)=O)C(=O)[C@@]2(O)C(O)=C3C(=O)c4c(O)cccc4[C@@](C)(O)[C@H]3C[C@@H]12 [Tetracycline, tetracycline] | – | – | – | – | – | – | – | MIC, P. aeruginosa [12]: >96.7 [48] μM; MIC [2, 13]: 3.5 µM (≈ 1.56 µg/mL)
Bis-(3-acetoxybenzoato)triphenylantimony(V) [Complex 2] | 30 ± 2.3 | 140.6 | 2.45 | 12.2 ± 0.91 | 140.6 | 3.40 | 8.9 ± 0.36 | –
meglumine antimoniate | – | – | – | – | – | – | – | activity in the promastigotes model (Leishmania promastigotes): inactive
